Results published in patent US8324258B2, “F1F0-ATPase inhibitors and related methods” (The Regents of the University of Michigan, priority 2007, dated 2012).

Columns and labels:
[1] = system: Ramos cells; test: Cytotoxicity (cell death) in Ramos cells; assay type: cell-based
Experimental: (§1) The compounds listed in Table 9 were tested for activity against F1F0-ATPase by measuring ATP synthesis and ATP hydrolysis. In addition, the compounds were assessed for cytotoxicity in Ramos cells Inhibition of ATP synthesis and hydrolysis by the F1F0-ATPase and cytotoxicity in Ramos cells was measured as described in K. M. Johnson et al. Chemistry & Biology 2005, 12, 485-496.

[2] = biological target: T1, F1F0-ATPase (Bos taurus, UniProt P13621); test: Inhibition of ATP synthesis by the F1F0-ATPase; assay type: biochemical; settings: IC40: concentration for 40% inhibition
Experimental: as §1

[3] = biological target: T1, F1F0-ATPase; test: Inhibition of ATP hydrolysis by the F1F0-ATPase; assay type: biochemical; settings: IC40: concentration for 40% inhibition
Experimental: as §1

## Cc1cccc(NC(=NC(=O)c2cccc(Cl)c2)NCCc2c[nH]cn2)c1 [III-9, (Z/E)-N-((2-(1H-imidazol-4-yl)ethylamino)(m-toluidino)methylene)-3-chlorobenzamide]
[1]; Ramos cells
  EC50: > 30 µM
[2]
  ATP Synthesis (IC40 μM): >10 µM
[3]
  ATP Hydrolysis (IC40 μM): >20 µM

## O=C(N=C(NCCc1c[nH]cn1)Nc1ccccc1-c1ccccc1)c1cccc(Cl)c1 [Compound I-8, (Z/E)-N-((2-(1H-imidazol-4-yl)ethylamino)(biphenyl-2-ylamino)methylene)-3-chlorobenzamide]
[1]; Ramos cells
  EC50: > 20 µM
[2]
  ATP Synthesis (IC40 μM): >10 µM
[3]
  ATP Hydrolysis (IC40 μM): >10 µM

## O=C(/N=C(\Nc1ccc(-c2ccccc2)cc1)Nc1cccc2[nH]ccc12)c1cccc(Cl)c1 [IV-1, (Z/E)-N-((1H-indol-4-ylamino)(biphenyl-4-ylamino)methylene)-3-chlorobenzamide]
[1]; Homo sapiens, Ramos
  EC50: > 10 µM
[2]
  ATP Synthesis (IC40 μM): >10 µM
[3]
  ATP Hydrolysis (IC40 μM): >30 µM

## C[C@H](Cc1c[nH]cn1)N/C(=N/C(=O)c1cccc(Cl)c1)Nc1ccc(-c2ccccc2)cc1 [IV-6, (R,Z/E)-N-((1-(1H-imidazol-4-yl)propan-2-ylamino)(biphenyl-4-ylamino)methylene)-3-chlorobenzamide]
[1]; Homo sapiens, Ramos
  EC50: < 10 µM
[2]
  ATP Synthesis (IC40 μM): <10 µM
[3]
  ATP Hydrolysis (IC40 μM): <10 µM

## O=C(/N=C(/NCCN1CCNC1=O)Nc1ccc(-c2ccccc2)cc1)c1cccc(Cl)c1 [IV-7, (Z/E)-N-((biphenyl-4-ylamino)(2-(2-oxoimidazolidin-1-yl)ethylamino)methylene)-3-chlorobenzamide]
[1]; Homo sapiens, Ramos
  EC50: > 30 µM
[2]
  ATP Synthesis (IC40 μM): >20 µM
[3]
  ATP Hydrolysis (IC40 μM): >30 µM

## O=C(N=C(NCCc1c[nH]cn1)Nc1cccc2ccccc12)c1cccc(Cl)c1 [III-27, (Z/E)-N-((2-(1H-imidazol-4-yl)ethylamino)(naphthalen-1-ylamino)methylene)-3-chlorobenzamide]
[1]; Ramos cells
  EC50: > 10 µM
[2]
  ATP Synthesis (IC40 μM): <10 µM
[3]
  ATP Hydrolysis (IC40 μM): >10 µM

## N#Cc1ccc(C(=O)N=C(NCCc2c[nH]cn2)Nc2ccc(-c3ccccc3)cc2)cc1 [II-7, (Z/E)-N-((2-(1H-imidazol-4-yl)ethylamino)(biphenyl-4-ylamino)methylene)-4-cyanobenzamide]
[1]; Ramos cells
  EC50: > 30 µM
[2]
  ATP Synthesis (IC40 μM): >20 µM
[3]
  ATP Hydrolysis (IC40 μM): >10 µM

## O=C(N=C(NCCc1c[nH]cn1)Nc1cccc(-c2ccccc2)c1)c1cccc(C(F)(F)F)c1 [VI-3, (Z/E)-N-((2-(1H-imidazol-4-yl)ethylamino)(biphenyl-3-ylamino)methylene)-3-(trifluoromethyl)benzamide]
[1]; Ramos cells
  EC50: < 10 µM
[2]
  ATP Synthesis (IC40 μM): <10 µM
[3]
  ATP Hydrolysis (IC40 μM): >10 µM

## COc1cccc(NC(=NC(=O)c2cccc(Cl)c2)NCCc2c[nH]cn2)c1 [III-12, (Z/E)-N-((2-(1H-imidazol-4-yl)ethylamino)(3-methoxyphenylamino)methylene)-3-chlorobenzamide]
[1]; Ramos cells
  EC50: > 30 µM
[2]
  ATP Synthesis (IC40 μM): >20 µM
[3]
  ATP Hydrolysis (IC40 μM): >30 µM

## Cc1ccc(C(=O)N=C(NCCc2c[nH]cn2)Nc2ccccc2-c2ccccc2)cc1 [Compound I-5, (E/Z)—N-((2-(1H-imidazol-4-yl)ethylamino)(biphenyl-2-ylamino)methylene)-4-methylbenzamide]
[1]; Ramos cells
  EC50: > 20 µM
[2]
  ATP Synthesis (IC40 μM): >10 µM
[3]
  ATP Hydrolysis (IC40 μM): >10 µM

## Cc1cccc(C(=O)N=C(NCCc2c[nH]cn2)Nc2ccccc2-c2ccccc2)c1 [Compound I-4, (E/Z)—N-((2-(1H-imidazol-4-yl)ethylamino)(biphenyl-2-ylamino)methylene)-3-methylbenzamide]
[1]; Ramos cells
  EC50: > 20 µM
[2]
  ATP Synthesis (IC40 μM): >10 µM
[3]
  ATP Hydrolysis (IC40 μM): >20 µM

## O=C(N=C(NCCc1c[nH]cn1)Nc1cccc(C(F)(F)F)c1)c1cccc(Cl)c1 [III-24, (Z/E)-N-((2-(1H-imidazol-4-yl)ethylamino)(3-(trifluoromethyl)phenylamino)methylene)-3-chlorobenzamide]
[1]; Ramos cells
  EC50: > 10 µM
[2]
  ATP Synthesis (IC40 μM): <10 µM
[3]
  ATP Hydrolysis (IC40 μM): <10 µM

## CCc1cccc(NC(=NC(=O)c2cccc(Cl)c2)NCCc2c[nH]cn2)c1 [III-42]
[1]; Ramos cells
  EC50: > 20 µM
[2]
  ATP Synthesis (IC40 μM): <10 µM
[3]
  ATP Hydrolysis (IC40 μM): >20 µM

## O=C(/N=C(/NCCc1nc[nH]n1)Nc1ccc(-c2ccccc2)cc1)c1cccc(Cl)c1 [IV-3, (Z/E)-N-((2-(1H-1,2,4-triazol-3-yl)ethylamino)(biphenyl-4-ylamino)methylene)-3-chlorobenzamide]
[1]; Homo sapiens, Ramos
  EC50: > 10 µM
[2]
  ATP Synthesis (IC40 μM): <10 µM
[3]
  ATP Hydrolysis (IC40 μM): <10 µM

## COc1ccccc1NC(=NC(=O)c1cccc(Cl)c1)NCCc1c[nH]cn1 [III-11, (Z/E)-N-((2-(1H-imidazol-4-yl)ethylamino)(2-methoxyphenylamino)methylene)-3-chlorobenzamide]
[1]; Ramos cells
  EC50: > 30 µM
[2]
  ATP Synthesis (IC40 μM): >10 µM
[3]
  ATP Hydrolysis (IC40 μM): >30 µM

## C[C@@H](Cc1c[nH]cn1)N/C(=N/C(=O)c1cccc(Cl)c1)Nc1ccc(-c2ccccc2)cc1 [IV-5, (S,Z/E)-N-((1-(1H-imidazol-4-yl)propan-2-ylamino)(biphenyl-4-ylamino)methylene)-3-chlorobenzamide]
[1]; Homo sapiens, Ramos
  EC50: < 10 µM
[2]
  ATP Synthesis (IC40 μM): <10 µM
[3]
  ATP Hydrolysis (IC40 μM): <10 µM

## O=C(N=C(NCCc1c[nH]cn1)Nc1ccccc1F)c1cccc(Cl)c1 [III-14, (Z/E)-N-((2-(1H-imidazol-4-yl)ethylamino)(2-fluorophenylamino)methylene)-3-chlorobenzamide]
[1]; Ramos cells
  EC50: > 30 µM
[2]
  ATP Synthesis (IC40 μM): >20 µM
[3]
  ATP Hydrolysis (IC40 μM): >30 µM

## O=C(N=C(NCCc1c[nH]cn1)Nc1ccccc1-c1ccccc1)c1ccccc1 [Compound I-7, (Z/E)-N-((2-(1H-imidazol-4-yl)ethylamino)(biphenyl-2-ylamino)methylene)benzamide]
[1]; Ramos cells
  EC50: > 30 µM
[2]
  ATP Synthesis (IC40 μM): >20 µM
[3]
  ATP Hydrolysis (IC40 μM): >30 µM

## CS(=O)(=O)c1cccc(NC(=NC(=O)c2cccc(Cl)c2)NCCc2cnc[nH]2)c1 [III-37, (Z/E)-N-((2-(1H-imidazol-5-yl)ethylamino)(3-(methylsulfonyl)phenylamino)methylene)-3-chlorobenzamide]
[1]; Ramos cells
  EC50: > 30 µM
[2]
  ATP Synthesis (IC40 μM): >20 µM
[3]
  ATP Hydrolysis (IC40 μM): >30 µM

## CCc1ccccc1NC(=NC(=O)c1cccc(Cl)c1)NCCc1c[nH]cn1 [III-41]
[1]; Ramos cells
  EC50: > 30 µM
[2]
  ATP Synthesis (IC40 μM): >10 µM
[3]
  ATP Hydrolysis (IC40 μM): >10 µM

## O=C(N=C(NCCc1c[nH]cn1)Nc1cccc(Cl)c1)c1cccc(Cl)c1 [III-18, (Z/E)-N-((2-(1H-imidazol-4-yl)ethylamino)(3-chlorophenylamino)methylene)-3-chlorobenzamide]
[1]; Ramos cells
  EC50: > 10 µM
[2]
  ATP Synthesis (IC40 μM): >10 µM
[3]
  ATP Hydrolysis (IC40 μM): >20 µM

## O=C(N=C(NCCc1c[nH]cn1)Nc1ccc(-c2ccccc2)cc1)c1ccc(C(F)(F)F)cc1 [II-5, (Z/E)-N-((2-(1H-imidazol-4-yl)ethylamino)(biphenyl-4-ylamino)methylene)-4-(trifluoromethyl)benzamide]
[1]; Ramos cells
  EC50: < 10 µM
[2]
  ATP Synthesis (IC40 μM): >10 µM
[3]
  ATP Hydrolysis (IC40 μM): >10 µM

## O=C(N=C(NCCc1c[nH]cn1)Nc1ccc(Cl)cc1)c1cccc(Cl)c1 [III-19, (Z/E)-N-((2-(1H-imidazol-4-yl)ethylamino)(4-chlorophenylamino)methylene)-3-chlorobenzamide]
[1]; Ramos cells
  EC50: > 10 µM
[2]
  ATP Synthesis (IC40 μM): >10 µM
[3]
  ATP Hydrolysis (IC40 μM): >30 µM

## O=C(N=C(NCCc1c[nH]cn1)Nc1cccc(F)c1)c1cccc(Cl)c1 [III-15, (Z/E)-N-((2-(1H-imidazol-4-yl)ethylamino)(3-fluorophenylamino)methylene)-3-chlorobenzamide]
[1]; Ramos cells
  EC50: > 30 µM
[2]
  ATP Synthesis (IC40 μM): >20 µM
[3]
  ATP Hydrolysis (IC40 μM): >30 µM

## Cc1ccc(C(=O)N=C(NCCc2c[nH]cn2)Nc2cccc(-c3ccccc3)c2)cc1 [VI-1, (Z/E)-N-((2-(1H-imidazol-4-yl)ethylamino)(biphenyl-3-ylamino)methylene)-4-methylbenzamide]
[1]; Ramos cells
  EC50: > 10 µM
[2]
  ATP Synthesis (IC40 μM): <10 µM
[3]
  ATP Hydrolysis (IC40 μM): >10 µM

## O=C(N=C(NCCc1c[nH]cn1)Nc1ccc(-c2ccccc2)cc1)c1cccc(Br)c1 [II-10, (Z/E)-N-((2-(1H-imidazol-4-yl)ethylamino)(biphenyl-4-ylamino)methylene)-3-bromobenzamide]
[1]; Ramos cells
  EC50: < 10 µM
[2]
  ATP Synthesis (IC40 μM): >10 µM
[3]
  ATP Hydrolysis (IC40 μM): >10 µM

## COc1cccc(-c2ccc(NC(=NC(=O)c3cccc(Cl)c3)NCCc3c[nH]cn3)cc2)c1 [III-34, (Z/E)-N-((2-(1H-imidazol-4-yl)ethylamino)(3′-methoxybiphenyl-4-ylamino)methylene)-3-chlorobenzamide]
[1]; Ramos cells
  EC50: < 10 µM
[2]
  ATP Synthesis (IC40 μM): <10 µM
[3]
  ATP Hydrolysis (IC40 μM): >10 µM

## O=C(N=C(NCCc1c[nH]cn1)Nc1cccc(-c2ccccc2)c1)c1ccc([N+](=O)[O-])cc1 [VI-13, (Z/E)-N-((2-(1H-imidazol-4-yl)ethylamino)-(biphenyl-3-ylamino)methylene)-4-nitrobenzamide]
[1]; Ramos cells
  EC50: < 10 µM
[2]
  ATP Synthesis (IC40 μM): <10 µM
[3]
  ATP Hydrolysis (IC40 μM): >30 µM

## O=C(N=C(NCCc1c[nH]cn1)Nc1cccc(-c2ccccc2)c1)c1cccc(Cl)c1 [III-6, (Z/E)-N-((2-(1H-imidazol-4-yl)ethylamino)(biphenyl-3-ylamino)methylene)-3-chlorobenzamide]
[1]; Ramos cells
  EC50: < 10 µM
[2]
  ATP Synthesis (IC40 μM): <10 µM
[3]
  ATP Hydrolysis (IC40 μM): >10 µM

## O=C(/N=C(/NCCc1c[nH]cn1)Nc1ccc2cc[nH]c2c1)c1cccc(Cl)c1 [Compound V-3, (Z/E)-N-((2-(1H-imidazol-4-yl)ethylamino)(1H-indol-6-ylamino)methylene)-3-chlorobenzamide]
[1]; Homo sapiens, Ramos
  EC50: > 20 µM
[2]
  ATP Synthesis (IC40 μM): >10 µM
[3]
  ATP Hydrolysis (IC40 μM): <10 µM
